Among the test systems are SR leukemia; OVCAR-5 ovarian; COLO 205 colon; NCI-H226 lung; NCI-H460 lung; MALME-3M melanoma; SNB-75 CNS; NCI/ADR-RES ovarian; BT-549 breast.
Common to all, as to assay: NCI tumour cell line growth inhibition, 48 h

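Protocol summary: plate cells (96-well), add compound at 5 concentrations, incubate 48 h, interpolate endpoints linearly. GI50: concentration for 50% inhibition of growth. TGI: concentration producing complete growth inhibition.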 Where only a bound is given, the exact number is not on record here.

For `CC(=O)CC(=O)CCCC(=O)Nc1ccc(Cl)cc1Cl`, the TGI in the test with SR leukemia, with OVCAR-5 ovarian, with COLO 205 colon, in the test on NCI-H226 lung, in the test on NCI-H460 lung and with MALME-3M melanoma was over 100 µM in each case. Moreover, the TGI with SNB-75 CNS was over 100 µM.

Regarding `CCOC(=O)c1[nH]c2cccc3c2c1CC(Br)C3=O` (stereo unspecified), the TGI in the test with SR leukemia was 4.99 µM; in the test on OVCAR-5 ovarian, 34.5 µM; in the test with COLO 205 colon, 27.2 µM; in the test with NCI-H226 lung, 37.2 µM; in the test on NCI/ADR-RES ovarian, 30.3 µM; in the test on NCI-H460 lung, 47.8 µM. In addition, the TGI with MALME-3M melanoma is 28.2 µM; with BT-549 breast, 32.1 µM.

As for `N#CC12CCC(O)C(CC1)C2=O` (stereo unspecified), the TGI in the test with SR leukemia was 77.3 µM; in the test with OVCAR-5 ovarian, over 100 µM; with COLO 205 colon, over 100 µM; in the test with NCI-H226 lung, over 100 µM; in the test with NCI-H460 lung, over 100 µM; in the test on MALME-3M melanoma it was over 100 µM. For the same molecule, the TGI with SNB-75 CNS was over 100 µM.

As for `O=NN(CCCl)C(=O)NCc1ccc[n+]([O-])c1`, the TGI in the test on SR leukemia, in the test with OVCAR-5 ovarian, in the test with COLO 205 colon, with NCI-H226 lung, with NCI-H460 lung and in the test on MALME-3M melanoma was over 100 µM throughout.

As for `CC1(c2ccccc2)CC12C(=O)NC(=O)NC2=O` (stereo unspecified), the TGI with SR leukemia, in the test on OVCAR-5 ovarian, with COLO 205 colon, with NCI-H226 lung and in the test on MALME-3M melanoma was over 100 µM throughout.

Turning to `O=C1C2c3[nH]c4ccccc4c3C3CCSCC3C2C(=O)N1c1ccccc1` (stereo unspecified), the TGI was over 100 µM in the test with OVCAR-5 ovarian; over 100 µM in the test on COLO 205 colon; over 100 µM in the test with NCI-H226 lung; over 100 µM in the test on NCI-H460 lung; over 100 µM in the test with MALME-3M melanoma; 44.7 µM in the test on SNB-75 CNS.

Regarding `CCCOP1(=O)C=C(C)C(Cl)=C(C)C1` (stereo unspecified), the TGI was 61.8 µM with SR leukemia; 77.4 µM with OVCAR-5 ovarian; 24.4 µM in the test with COLO 205 colon; 52.2 µM in the test with NCI-H226 lung; over 100 µM in the test with NCI-H460 lung; 92.6 µM with SNB-75 CNS.

`N.N.NCCCCN.O=C([O-])CC(=O)[O-].O=C([O-])CC(=O)[O-].[Pt+4].[Pt+4]`: the GI50 in the test with SR leukemia is 30.4 µM; in the test with OVCAR-5 ovarian, over 100 µM; in the test with COLO 205 colon, over 100 µM; in the test with NCI-H226 lung, over 100 µM; in the test with NCI-H460 lung, 9.62 µM; in the test on MALME-3M melanoma, over 100 µM. In addition, the GI50 with SNB-75 CNS was over 100 µM. Also, the TGI in the test on SR leukemia, in the test with OVCAR-5 ovarian, in the test with COLO 205 colon, in the test on NCI-H226 lung, with NCI-H460 lung and with MALME-3M melanoma was over 100 µM in each case. Also, the TGI in the test on SNB-75 CNS was over 100 µM.

In the case of `N#Cc1c2ccccc2c2nnc3cc(C(F)(F)F)ccc3n12`, the GI50 with SR leukemia was 31.3 µM; in the test on COLO 205 colon, 37.4 µM; in the test with NCI-H460 lung it was 37.1 µM; with MALME-3M melanoma it was over 100 µM; in the test on BT-549 breast, 57.2 µM; in the test on SNB-75 CNS, over 100 µM. Further, the TGI in the test on SR leukemia, with COLO 205 colon, with NCI-H460 lung, in the test with MALME-3M melanoma, in the test with BT-549 breast and in the test on SNB-75 CNS was over 100 µM throughout.

On to `COCC1N=C(c2ccc(OC)c(OCc3ccccc3)c2OC)O[C@H]1c1ccccc1` (stereo partly specified), for which the TGI is 71.2 µM with OVCAR-5 ovarian; 41.8 µM in the test with COLO 205 colon; 81.1 µM with NCI-H226 lung; 35 µM with NCI-H460 lung; over 100 µM in the test on SNB-75 CNS.

Consider `CC1=C2C(=CC(C)(CO)C2O)C(=O)C(C)(O)C12CC2` (stereo unspecified), for which the TGI in the test with SR leukemia is 0.146 µM; with OVCAR-5 ovarian it was 0.0258 µM; with COLO 205 colon it was 0.0115 µM; in the test on NCI-H226 lung it was 0.015 µM; in the test with NCI-H460 lung, 0.0046 µM; in the test with MALME-3M melanoma, 0.0105 µM. This molecule yielded a TGI in the test with SNB-75 CNS of 0.0165 µM. For the same molecule, the GI50 was 0.00454 µM in the test with COLO 205 colon and 0.00576 µM in the test with SNB-75 CNS.

Turning to `N#C[C@]12CC3(CC[C@H]1CC1(C2)OCCO1)OCCO3`, the TGI with SR leukemia, in the test with COLO 205 colon, in the test on NCI-H226 lung, in the test with NCI-H460 lung, in the test on MALME-3M melanoma and with SNB-75 CNS was over 100 µM throughout.

Turning to `Nc1ccc(CCN2CCN(c3cccc(C(F)(F)F)c3)CC2)cc1`, the TGI in the test with SR leukemia, with OVCAR-5 ovarian, in the test with COLO 205 colon, with NCI-H226 lung, with NCI-H460 lung and in the test with MALME-3M melanoma was over 100 µM throughout. In the test on SNB-75 CNS, this molecule came in with a TGI of over 100 µM.

Consider `CC(C)SC1SCC2C(=O)N(C)C3(CC3C)C(=O)OCC(NC(=O)c3nc4ccccc4cc3O)C(=O)NC(C)C(=O)N(C)C1C(=O)N(C)C1(CC1C)C(=O)OCC(NC(=O)c1nc3ccccc3cc1O)C(=O)NC(C)C(=O)N2C` (stereo unspecified), for which the TGI with SR leukemia, in the test on COLO 205 colon and in the test with NCI-H226 lung was under 0.0001 µM each time. In addition, the GI50 in the test on NCI/ADR-RES ovarian is 0.0334 µM.

Take `CCC12CCC(O)C1N(C)CCC2Sc1ccccc1` (stereo unspecified): the TGI is over 100 µM in the test with COLO 205 colon; over 100 µM with NCI-H226 lung; over 100 µM in the test on NCI-H460 lung; over 100 µM in the test on MALME-3M melanoma; 87.9 µM in the test on SNB-75 CNS.

With `C=CC[P@@]1(=O)O[C@H](c2ccccc2)C(C)N1C(C)C` (stereo partly specified), the TGI in the test with SR leukemia, in the test on OVCAR-5 ovarian, in the test on NCI-H226 lung, in the test on NCI-H460 lung, with MALME-3M melanoma and in the test on SNB-75 CNS was over 100 µM each time.

For `COc1ccc(-c2nc3sccn3c2/C=C/C(=O)c2cc(OC)c(OC)c(OC)c2)cc1OC`, the GI50 is 1.3 µM in the test on SR leukemia; 2.45 µM with OVCAR-5 ovarian; 2.41 µM in the test on COLO 205 colon; 2.16 µM in the test with NCI-H226 lung; 2.27 µM with NCI/ADR-RES ovarian; 1.99 µM in the test on NCI-H460 lung. The values for the GI50 in the test with MALME-3M melanoma, with BT-549 breast and with SNB-75 CNS were 3.33 µM, 2.43 µM and 1.99 µM, respectively. Moreover, the TGI amounted to 4.15 µM with SR leukemia; 7.02 µM in the test on OVCAR-5 ovarian; 5.98 µM in the test with COLO 205 colon; 9.84 µM in the test on NCI-H226 lung; 5.98 µM with NCI/ADR-RES ovarian; 3.76 µM in the test on NCI-H460 lung. Moreover, the TGI in the test on MALME-3M melanoma stood at 54.1 µM; in the test on BT-549 breast it was 7.95 µM; in the test with SNB-75 CNS it was 5.43 µM.
